Common to all, as to type: biochemical
The target of one assay is Lck (Homo sapiens, UniProt P06239). Nature of the assay: Lck kinase activity, TR-FRET assay. The settings on record: read-out: LCK (IC50). The protocol: Btk kinase activity is determined using a time-resolved fluorescence resonance energy transfer (TR-FRET) methodology. Measurements are performed in a reaction volume of 50 μL using 96-well assay plates. Kinase enzyme, inhibitor, ATP (at the Km for the kinase), and 1 […] (Biotin-AVLESEEELYSSARQ-NH2) are incubated in a reaction buffer composed of 20 mM Tris, 50 mM NaCl, MgCl2 (5-25 mM depending on the kinase), MnCl2 (0-10 mM), 1 mM DTT, 0.1 mM EDTA, 0.01% bovine serum albumin, 0.005% Tween-20, and 10% DMSO at pH 7.4 for one hour. The reaction is quenched by the addition of 1.2 equivalents of EDTA (relative to divalent cation) in 25 μL of 1× Lance buffer (Perkin-Elmer). Streptavidin-APC (Perkin-Elmer) and Eu-labeled p-Tyr100 antibody (Perkin-Elmer) in 1× Lance buffer are added in a 25 μL volume to give final concentrations of 100 nM and 2.5 nM, respectively, and the mixture is allowed to incubate for one hour. The TR-FRET signal is measured on a multimode plate reader with an excitation wavelength (λEx) of 330 nm and detection wavelengths (λEm) of 615 and 665 nm. Activity is determined by the ratio of the fluorescence at 665 nm to that at 615 nm. For each compound, enzyme activity is measured at various concentrations of compound. Negative control reactions are performed in the absence of inhibitor in replicates of six, and two no-enzyme controls are used to determine baseline fluorescence levels. Inhibition constants, Ki(app), ware obtained using the program BatchKi (Kuzmic et al. (2000), Anal. Biochem. 286:45-50). IC50s are obtained according to the equation: IC50={Ki(app)/(1+[ATP]/Km^ATP)}+[E]total/2;
Sequence of Lck (P06239 whole entry, species assumed): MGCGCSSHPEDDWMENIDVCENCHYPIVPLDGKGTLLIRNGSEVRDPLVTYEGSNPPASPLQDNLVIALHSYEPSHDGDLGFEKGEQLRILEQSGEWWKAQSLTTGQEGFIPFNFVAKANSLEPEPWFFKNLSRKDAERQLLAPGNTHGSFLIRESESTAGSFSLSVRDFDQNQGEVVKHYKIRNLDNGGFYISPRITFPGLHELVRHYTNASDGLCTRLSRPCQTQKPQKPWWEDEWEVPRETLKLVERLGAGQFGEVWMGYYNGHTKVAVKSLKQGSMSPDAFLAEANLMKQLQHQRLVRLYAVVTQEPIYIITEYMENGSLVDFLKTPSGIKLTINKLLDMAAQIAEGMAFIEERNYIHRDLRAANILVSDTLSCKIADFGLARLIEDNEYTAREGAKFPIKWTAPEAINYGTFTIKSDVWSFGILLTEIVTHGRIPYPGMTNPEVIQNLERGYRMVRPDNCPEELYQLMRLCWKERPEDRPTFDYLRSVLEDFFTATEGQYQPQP
For all kinases, [ATP]=Km^ATP, [Btk]total=0.5 nM and [Lck]total=6 nM.

The target in another assay is EGFR (Homo sapiens, UniProt P00533). Kind of assay: Inhibition of a panel of kinases, in vitro HotSpot kinase assay: EGFR. The protocol: The degree of inhibition of a panel of kinases is determined using the in vitro HotSpot kinase assay (purified enzymes, ^33P-ATP, an appropriate substrate and 1 uM ATP).
Sequence of EGFR (P00533 25-1210): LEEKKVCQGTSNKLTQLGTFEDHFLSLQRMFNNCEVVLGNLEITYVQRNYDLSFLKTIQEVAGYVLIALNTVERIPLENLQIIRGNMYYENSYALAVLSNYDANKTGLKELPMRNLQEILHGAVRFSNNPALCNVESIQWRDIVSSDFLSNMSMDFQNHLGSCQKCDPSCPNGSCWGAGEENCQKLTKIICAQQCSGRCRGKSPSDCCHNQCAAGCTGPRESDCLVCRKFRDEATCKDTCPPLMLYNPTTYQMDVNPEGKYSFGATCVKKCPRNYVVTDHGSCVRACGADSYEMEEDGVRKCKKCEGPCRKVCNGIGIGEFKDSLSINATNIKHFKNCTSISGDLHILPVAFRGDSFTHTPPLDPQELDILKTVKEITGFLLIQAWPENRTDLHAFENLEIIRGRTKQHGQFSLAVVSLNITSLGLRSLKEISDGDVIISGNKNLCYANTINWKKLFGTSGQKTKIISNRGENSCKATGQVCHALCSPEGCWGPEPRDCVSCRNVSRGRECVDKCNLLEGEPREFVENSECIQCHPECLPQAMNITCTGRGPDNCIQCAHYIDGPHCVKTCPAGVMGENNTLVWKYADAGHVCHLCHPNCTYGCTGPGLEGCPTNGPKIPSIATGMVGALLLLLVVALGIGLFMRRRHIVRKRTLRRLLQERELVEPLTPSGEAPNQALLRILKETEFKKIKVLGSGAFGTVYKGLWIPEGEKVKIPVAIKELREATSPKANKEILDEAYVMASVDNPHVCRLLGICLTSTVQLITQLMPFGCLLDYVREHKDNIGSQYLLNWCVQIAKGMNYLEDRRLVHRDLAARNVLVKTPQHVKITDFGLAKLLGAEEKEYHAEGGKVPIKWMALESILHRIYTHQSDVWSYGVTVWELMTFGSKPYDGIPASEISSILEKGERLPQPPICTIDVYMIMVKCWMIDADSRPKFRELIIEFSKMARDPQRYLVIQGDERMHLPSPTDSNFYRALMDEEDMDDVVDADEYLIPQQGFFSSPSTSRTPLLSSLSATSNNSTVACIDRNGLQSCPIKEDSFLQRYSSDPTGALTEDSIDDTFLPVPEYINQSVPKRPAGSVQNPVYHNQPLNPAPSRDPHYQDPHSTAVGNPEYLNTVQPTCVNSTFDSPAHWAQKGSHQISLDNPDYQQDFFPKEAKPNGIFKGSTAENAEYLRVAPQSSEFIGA
A further assay addresses Btk (Homo sapiens, UniProt Q06187). Kind of assay: Btk kinase activity, TR-FRET assay. To be noted: read-out: Btk (IC50). The essentials:
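Enzyme (Btk 0.5 nM; Lck 6 nM) reacted 1 h with inhibitor, ATP at Km and biotin-peptide substrate in pH 7.4 buffer, 10% DMSO. Phosphopeptide detected by Eu-p-Tyr100 antibody plus streptavidin-APC (665/615 nm). IC50 calculated from fitted Ki(app) via ATP/Km correction plus half total enzyme.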

Among the data in US9580416B2, “Inhibitors of Bruton's tyrosine kinase” (PHARMACYCLICS LLC, priority 2014, dated 2017) are IC50 values, retold here.

Sequence of Btk (Q06187 whole entry): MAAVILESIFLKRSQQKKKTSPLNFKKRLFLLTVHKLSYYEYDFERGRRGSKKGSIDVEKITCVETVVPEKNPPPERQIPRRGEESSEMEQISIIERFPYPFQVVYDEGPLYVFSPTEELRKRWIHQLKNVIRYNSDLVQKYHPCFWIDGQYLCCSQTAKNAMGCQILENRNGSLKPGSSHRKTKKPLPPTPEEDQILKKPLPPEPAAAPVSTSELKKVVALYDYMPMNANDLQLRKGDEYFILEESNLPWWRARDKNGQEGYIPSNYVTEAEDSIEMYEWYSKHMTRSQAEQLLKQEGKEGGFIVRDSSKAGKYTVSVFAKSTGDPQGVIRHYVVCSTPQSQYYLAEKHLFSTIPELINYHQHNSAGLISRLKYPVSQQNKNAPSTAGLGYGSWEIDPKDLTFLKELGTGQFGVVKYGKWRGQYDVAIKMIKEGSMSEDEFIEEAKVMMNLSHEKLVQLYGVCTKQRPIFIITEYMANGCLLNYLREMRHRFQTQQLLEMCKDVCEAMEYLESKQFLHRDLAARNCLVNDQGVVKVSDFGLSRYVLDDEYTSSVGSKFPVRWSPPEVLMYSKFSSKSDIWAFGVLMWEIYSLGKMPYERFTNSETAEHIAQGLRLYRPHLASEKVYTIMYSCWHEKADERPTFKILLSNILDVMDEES

`Cc1ccnc(NC(=O)c2ccc(Oc3ccnc4[nH]nc(N[C@@H]5CCCN(C(=O)C6COC6)C5)c34)cc2)c1` [compound 90, N-(4-methylpyridin-2-yl)-4-[(3-{[(3R)-1-(oxetan-3-carbonyl)piperidin-3-yl]amino}-1H-pyrazolo[3,4-b]pyridin-4-yl)oxy]benzamide]: the values for the IC50 at Lck, against EGFR and on Btk were 100 to 1000 nM, 1000 to 10000 nM and below 100 nM, respectively.
Turning to `CN(C/C=C/C(=O)N1CC[C@@H](Nc2n[nH]c3nccc(Oc4ccc(C(=O)Nc5ncc[nH]5)cc4)c23)C1)C1CC1` [compound 67], the IC50 was above 10000 nM at Lck, above 10000 nM on EGFR and 100 to 1000 nM on Btk.
Take `CN(C)C/C=C/C(=O)N1CC[C@@H](Oc2n[nH]c3nccc(Nc4cccc(Oc5ccccc5)c4)c23)C1` [compound 17, (2E)-4-(dimethylamino)-1-[(3R)-3-({4-[(3-phenoxyphenyl)amino]-1H-pyrazolo[3,4-b]pyridin-3-yl}oxy)pyrrolidin-1-yl]but-2-en-1-one]: the IC50 at Lck was 100 to 1000 nM; on EGFR, below 100 nM; on Btk, below 100 nM.
Regarding `CNC(=O)/C(F)=C/c1cccc(Nc2n[nH]c3nccc(Oc4ccc(Oc5ccccc5)cc4)c23)c1` [compound 31, (2Z)-2-fluoro-N-methyl-3-(3-{[4-(4-phenoxyphenoxy)-1H-pyrazolo[3,4-b]pyridin-3-yl]amino}phenyl)prop-2-enamide], the IC50 at Lck, on EGFR and on Btk was 100 to 1000 nM in each case.
On to `CN(C)C/C=C/C(=O)N1CC[C@@H](Nc2n[nH]c3nccc(Oc4ccc(-c5ncco5)c(Cl)c4)c23)C1` [compound 16, (2E)-1-[(3R)-3-({4-[3-chloro-4-(1,3-oxazol-2-yl)phenoxy]-1H-pyrazolo[3,4-b]pyridin-3-yl}amino)pyrrolidin-1-yl]-4-(dimethylamino)but-2-en-1-one], for which the concentration for half-maximal inhibition (IC50) is 1000 to 10000 nM on Lck, 1000 to 10000 nM against EGFR and 100 to 1000 nM at Btk.
On to `N#C/C(=C\c1ccccn1)C(=O)N1CC[C@@H](Nc2n[nH]c3nccc(Oc4ccc(Oc5ccccc5)cc4)c23)C1` [compound 26, (2E)-2-[(E)-(3R)-3-{[4-(4-phenoxyphenoxy)-1H-pyrazolo[3,4-b]pyridin-3-yl]amino}pyrrolidine-1-carbonyl]-3-(pyridin-2-yl)prop-2-enenitrile], for which the figures for the half-maximal inhibitory concentration (IC50) at Lck, against EGFR and on Btk were 100 to 1000 nM, 100 to 1000 nM and below 100 nM, respectively.
Regarding `Cc1cnc(NC(=O)c2ccc(Oc3ccnc4[nH]nc(C5CCCN(C(=O)C6CC6)C5)c34)cc2)s1` (stereo not drawn) [compound 193], the IC50 at Lck was above 10000 nM; against EGFR, 1000 to 10000 nM; at Btk it was 100 to 1000 nM.
Take `CCNC(=O)N1CCC[C@@H](Nc2n[nH]c3nccc(Oc4ccc(-c5nc6cccc(C)c6o5)cc4)c23)C1` [compound 182]: the IC50 was above 10000 nM on Lck, above 10000 nM on EGFR and 100 to 1000 nM on Btk.
Turning to `CCNC(=O)N1CCCC(c2n[nH]c3nccc(Oc4ccc(C(=O)Nc5cc(C(F)(F)F)ccn5)cc4)c23)C1` (stereo not drawn) [compound 186], the IC50 at Lck is 100 to 1000 nM; at EGFR it was 1000 to 10000 nM; on Btk, 100 to 1000 nM.
As for `CN(C/C=C/C(=O)N1CC[C@@H](Nc2n[nH]c3nccc(Oc4ccc(C(=O)Nc5cc(C6CC6)ccn5)cc4)c23)C1)C1CC1` [compound 60], the figures for the IC50 on Lck, at EGFR and on Btk were 100 to 1000 nM, 1000 to 10000 nM and below 100 nM, respectively.
On to `Cc1ccnc(NC(=O)c2ccc(Oc3ccnc4[nH]nc(N[C@@H]5CCCN(C(=O)N6CCOCC6)C5)c34)cc2)c1` [compound 91, N-(4-methylpyridin-2-yl)-4-[(3-{[(3R)-1-(morpholine-4-carbonyl)piperidin-3-yl]amino}-1H-pyrazolo[3,4-b]pyridin-4-yl)oxy]benzamide], for which the IC50 is 1000 to 10000 nM on Lck, above 10000 nM on EGFR and below 100 nM on Btk.
The corresponding values for `CCOC(=O)N1CCC[C@@H](Nc2n[nH]c3nccc(Oc4ccc(C(=O)Nc5cc(C#N)ccn5)cc4)c23)C1` [compound 78, ethyl (3R)-3-[(4-{4-[(4-cyanopyridin-2-yl)carbamoyl]phenoxy}-1H-pyrazolo[3,4-b]pyridin-3-yl)amino]piperidine-1-carboxylate] are 100 to 1000 nM, 1000 to 10000 nM and below 100 nM.
The corresponding values for `C=CC(=O)N1CC[C@@H](Nc2c[nH]c3nccc(Oc4ccc(Cl)cc4)c23)C1` [compound 7, 1-[(3R)-3-{[4-(4-chlorophenoxy)-1H-pyrrolo[2,3-b]pyridin-3-yl]amino}pyrrolidin-1-yl]prop-2-en-1-one] are 1000 to 10000 nM, 1000 to 10000 nM and below 100 nM.
In the same order, the values of `CN(C)C/C=C/C(=O)N1CCC[C@@H](Nc2n[nH]c3nccc(Oc4cccc(Oc5ccccc5)c4)c23)C1` [compound 13, (2E)-4-(dimethylamino)-1-[(3R)-3-{[4-(3-phenoxyphenoxy)-1H-pyrazolo[3,4-b]pyridin-3-yl]amino}piperidin-1-yl]but-2-en-1-one] are 100 to 1000 nM, 100 to 1000 nM and below 100 nM.
Regarding `CN(C/C=C/C(=O)N1CC[C@@H](Nc2n[nH]c3nccc(Oc4ccc(C(=O)Nc5ccccn5)cc4)c23)C1)C1CC1` [compound 55], the figures for the IC50 on Lck, at EGFR and on Btk were 1000 to 10000 nM, above 10000 nM and below 100 nM, respectively.
As to `CN(C/C=C/C(=O)N1CCC[C@H]1CNc1n[nH]c2nccc(Oc3ccc(Oc4ccccc4)cc3)c12)C1CC1` [compound 36], the results for the IC50 at Lck, against EGFR and on Btk were below 100 nM, 1000 to 10000 nM and below 100 nM, respectively.
As to `NC(=O)c1cc(Nc2n[nH]c3nccc(Oc4ccc(Oc5ccccc5)cc4)c23)ccn1` [compound 59], the 50% inhibitory concentration (IC50) at Lck is below 100 nM; at EGFR, 100 to 1000 nM; on Btk, 100 to 1000 nM.
As to `CN(C)C/C=C/C(=O)N1CC[C@@H](Nc2n[nH]c3nccc(Oc4ccc(Cl)cc4)c23)C1` [compound 3, (2E)-1-[(3R)-{[4-(4-chlorophenoxy)-1H-pyrazolo[3,4-b]pyridin-3-yl]amino}pyrrolidin-1-yl]-4-(dimethylamino)but-2-en-1-one], the IC50 was above 10000 nM on Lck, 100 to 1000 nM at EGFR and below 100 nM at Btk.
The corresponding values for `Cc1ccnc(NC(=O)c2ccc(Oc3ccnc4[nH]nc(N[C@@H]5CCCN(C(=O)C6CCN(C)CC6)C5)c34)cc2)c1` [compound 92, 4-[(3-{[(3R)-1-(1-methylpiperidine-4-carbonyl)piperidin-3-yl]amino}-1H-pyrazolo[3,4-b]pyridin-4-yl)oxy]-N-(4-methylpyridin-2-yl)benzamide] are 100 to 1000 nM, 1000 to 10000 nM and below 100 nM.
The corresponding values for `CN(C/C=C/C(=O)N1CC[C@@H](Nc2n[nH]c3nccc(Oc4ccc(C(=O)Nc5cc(C(F)(F)F)ccn5)cc4)c23)C1)C1CC1` [compound 33, 4-[(3-{[(3R)-1-[(2E)-4-[cyclopropyl(methyl)amino]but-2-enoyl]pyrrolidin-3-yl]amino}-1H-pyrazolo[3,4-b]pyridin-4-yl)oxy]-N-[4-(trifluoromethyl)pyridin-2-yl]benzamide] are 100 to 1000 nM, 1000 to 10000 nM and below 100 nM.
As to `N#Cc1ccnc(NC(=O)c2ccc(Oc3ccnc4[nH]nc(NC5CCOCC5)c34)cc2)c1` [compound 77, N-(4-cyanopyridin-2-yl)-4-({3-[(oxan-4-yl)amino]-1H-pyrazolo[3,4-b]pyridin-4-yl}oxy)benzamide], the IC50 at Lck is 100 to 1000 nM; on EGFR, 1000 to 10000 nM; at Btk it was below 100 nM.
In the same order, the values of `CN(C)c1ccnc(NC(=O)c2ccc(Oc3ccnc4[nH]nc(N[C@@H]5CCN(C(=O)/C=C/CN(C)C6CC6)C5)c34)cc2)c1` [compound 68] are 1000 to 10000 nM, above 10000 nM and below 100 nM.
The corresponding values for `CN(C)C/C=C/C(=O)N1CC[C@@H](Nc2n[nH]c3nccc(Oc4cccc(Oc5ccccc5)c4)c23)C1` [compound 12, (2E)-4-(dimethylamino)-1-[(3R)-3-{[4-(3-phenoxyphenoxy)-1H-pyrazolo[3,4-b]pyridin-3-yl]amino}pyrrolidin-1-yl]but-2-en-1-one] are 1000 to 10000 nM, 1000 to 10000 nM and below 100 nM.
